The subject of one data set is HL-60. Description: Cytotoxicity against human HL60 cells after 96 hrs by MTT assay. As to conditions: HL-60, 96 h. On the technique in general: Tetrazolium assays rely on reduction of a dye to a coloured formazan, in cell work by metabolically active cells.
The next data set deals with PC-3. Description: Cytotoxicity against human PC3 cells after 96 hrs by MTT assay. As to conditions: PC-3, 96 h.
In another data set the test system is MDA-MB-231. Description: cells. The following applies: Homo sapiens, MDA-MB-231, 96 h.
Data set [1] is described as follows: Metabolic stability of compound in phosphate buffer in presence of human CYP3A4 and NADPH. The data set is classed as ADME.
Data set [2] is described as follows: Solubility at pH 7.4. The data set is classed as physicochemical. As to conditions: buffer.
The nature of data set [3]: Solubility at pH 3. The data set is classed as physicochemical. The following applies: buffer.
Data set [4] has as its target T1, E3 ubiquitin-protein ligase XIAP (Homo sapiens, UniProt P98170).
Description: Binding affinity to human recombinant XIAP BIR3 domain expressed in Escherichia coli BL21 by fluorescence polarization assay
The target of data set [5] is T1, E3 ubiquitin-protein ligase XIAP. This is another data set of the same source.
Description: Binding affinity to human recombinant XIAP linker BIR2-BIR3 expressed in Escherichia coli BL21 by fluorescence polarization assay

Molecules are shown by their SMILES. A value given as a limit tells only on which side of the number the result lay.

T1 sequence (P98170 whole entry): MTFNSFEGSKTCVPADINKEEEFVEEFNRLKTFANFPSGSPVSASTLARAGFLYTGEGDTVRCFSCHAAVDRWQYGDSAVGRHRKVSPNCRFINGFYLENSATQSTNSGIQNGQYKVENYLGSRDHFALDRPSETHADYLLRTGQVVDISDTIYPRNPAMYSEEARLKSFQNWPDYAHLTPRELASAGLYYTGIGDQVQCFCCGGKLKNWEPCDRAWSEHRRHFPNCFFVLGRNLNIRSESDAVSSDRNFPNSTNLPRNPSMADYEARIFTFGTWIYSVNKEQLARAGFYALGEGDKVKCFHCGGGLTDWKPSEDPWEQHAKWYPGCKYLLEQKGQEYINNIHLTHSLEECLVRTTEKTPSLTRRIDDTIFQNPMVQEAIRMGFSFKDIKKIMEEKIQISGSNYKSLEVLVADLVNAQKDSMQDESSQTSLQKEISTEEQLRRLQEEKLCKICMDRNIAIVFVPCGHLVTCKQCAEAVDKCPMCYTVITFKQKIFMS
Description for MDA-MB-231: Cytotoxicity against human MDA-MB-231 cells after 96 hrs by MTT assay

Usually IC50 stands for the point on the concentration scale where inhibition reaches its midpoint. Consider `CC[C@H](N)C(=O)N[C@@H]1C(=O)N2[C@@H](CC[C@@H]1CCO)CC[C@H]2C(=O)NC(c1ccccc1)c1ccccc1`, for which the IC50 with HL-60 is over 100 µM; in the data set on PC-3 it was over 100 µM; in the data set on MDA-MB-231, 1.8 µM.

With `CCNCC[C@H]1CC[C@H]2CC[C@@H](C(=O)NC(c3ccccc3)c3ccccc3)N2C(=O)[C@H]1NC(=O)[C@@H](N)CC`, the IC50 with HL-60 is 62.8 µM; in the data set with PC-3, over 100 µM; in the data set with MDA-MB-231 it was 8 µM.

`CCNC[C@H]1CC[C@H]2CC[C@@H](C(=O)NC(c3ccccc3)c3ccccc3)N2C(=O)[C@H]1NC(=O)[C@@H](N)CC`: the IC50 is 84 µM with HL-60, over 100 µM with PC-3 and 0.286 µM in the data set with MDA-MB-231. Besides, in data set [1], the Stability amounted to 81%.

Consider `CC[C@H](NC)C(=O)N[C@@H]1C(=O)N2[C@@H](CC[C@@H]1CCN)CC[C@H]2C(=O)NC(c1ccccc1)c1ccccc1`, for which the figures for the IC50 with HL-60, with PC-3 and in the data set on MDA-MB-231 were 31 µM, over 100 µM and 2.3 µM, respectively. The Stability in data set [1] turned out to be 86%.

Regarding `CC[C@H](N)C(=O)N[C@@H]1C(=O)N2[C@@H](CC[C@@H]1CCNC(=O)NCc1ccccc1)CC[C@H]2C(=O)NC(c1ccccc1)c1ccccc1`, the results for the IC50 in the data set with HL-60, in the data set on PC-3 and in the data set on MDA-MB-231 were 83.3 µM, over 100 µM and 10.8 µM, respectively. In data set [1], the Stability is 65%.

As to `CC[C@H](NC)C(=O)N[C@@H]1C(=O)N2[C@@H](CC[C@@H]1CCNC(=O)c1ccccc1)CC[C@H]2C(=O)NC(c1ccccc1)c1ccccc1`, the IC50 is 32.6 µM in the data set on HL-60, over 100 µM in the data set on PC-3 and 0.21 µM with MDA-MB-231. Also, the Stability in data set [1] is 43%.

Consider `CC[C@H](N)C(=O)N[C@H]1CCC[C@H]2CC[C@@H](C(=O)NC(c3ccccc3)c3ccccc3)N2C1=O`, for which the values for the IC50 in the data set with HL-60, in the data set with PC-3 and in the data set on MDA-MB-231 were 24.5 µM, over 100 µM and over 100 µM, respectively. Also, in data set [1], the Stability was determined as 87%.

On to `CC[C@H](NC)C(=O)N[C@@H]1C(=O)N2[C@@H](CC[C@@H]1CCNCc1ccccc1)CC[C@H]2C(=O)NC(c1ccccc1)c1ccccc1`, for which the IC50 in the data set with HL-60 was found to be 5.2 µM; in the data set with PC-3, 7.8 µM; in data set [4] it was 0.11 µM; in data set [5], 0.027 µM; in the data set with MDA-MB-231, 0.141 µM. Further, the Stability in data set [1] was 81%. The solubility entry in data set [2] and in data set [3] was “Soluble” each time.

Regarding `CC[C@H](NC)C(=O)N[C@@H]1C(=O)N2[C@@H](CC[C@@H]1CCNC(=O)NCc1ccccc1)CC[C@H]2C(=O)NC(c1ccccc1)c1ccccc1`, the IC50 turned out to be 52.2 µM in the data set on HL-60, 83.5 µM in the data set on PC-3 and 1.2 µM with MDA-MB-231. In addition, the Stability in data set [1] came to 51%.

With `CC[C@H](N)C(=O)N[C@@H]1C(=O)N2[C@@H](CC[C@@H]1CNC(=O)NCc1ccccc1)CC[C@H]2C(=O)NC(c1ccccc1)c1ccccc1`, the concentration for half-maximal inhibition (IC50) in the data set with HL-60 is 51 µM; in the data set with PC-3, over 100 µM; in the data set on MDA-MB-231 it was 3.4 µM. For the same compound, in data set [1], the Stability is 73%.

For `CC[C@H](N)C(=O)N[C@@H]1C(=O)N2[C@@H](CC[C@@H]1CNCc1ccccc1)CC[C@H]2C(=O)NC(c1ccccc1)c1ccccc1`, the results for the IC50 in the data set on HL-60, in the data set on PC-3 and in the data set on MDA-MB-231 were 13.1 µM, 24.1 µM and 0.099 µM, respectively.

Turning to `CC[C@H](N)C(=O)N[C@@H]1C(=O)N2[C@@H](CC[C@@H]1CCN)CC[C@H]2C(=O)NC(c1ccccc1)c1ccccc1`, the IC50 in the data set on HL-60 came to 25 µM; in the data set on PC-3, 85.2 µM; in data set [5] it was 0.086 µM; with MDA-MB-231 it was 12.9 µM. Besides, the Stability in data set [1] is reported as 75%.

With `CCNCC[C@H]1CC[C@H]2CC[C@@H](C(=O)NC(c3ccccc3)c3ccccc3)N2C(=O)[C@H]1NC(=O)[C@H](CC)NC`, the figures for the IC50 in the data set with HL-60, with PC-3 and in the data set with MDA-MB-231 were 76.4 µM, over 100 µM and 1.3 µM, respectively. In data set [1], the Stability came out at 90%.

Consider `CC[C@H](NC)C(=O)N[C@@H]1C(=O)N2[C@@H](CC[C@@H]1CCO)CC[C@H]2C(=O)NC(c1ccccc1)c1ccccc1`, for which the IC50 is 74.8 µM in the data set on HL-60, over 100 µM in the data set on PC-3 and 0.173 µM in the data set on MDA-MB-231.

As to `CC[C@H](N)C(=O)N[C@@H]1C(=O)N2[C@@H](CC[C@@H]1CNC(=O)c1ccccc1)CC[C@H]2C(=O)NC(c1ccccc1)c1ccccc1`, the IC50 with HL-60 came to 36 µM; with PC-3, 80.1 µM. Besides, the Stability in data set [1] is reported as 81%.

On to `CC[C@H](NC)C(=O)N[C@@H]1C(=O)N2[C@@H](CC[C@@H]1CN)CC[C@H]2C(=O)NC(c1ccccc1)c1ccccc1`, for which the IC50 with HL-60 was found to be 51.8 µM; in the data set on PC-3 it was 51.7 µM; with MDA-MB-231, 0.542 µM. In addition, the Stability in data set [1] is on record as 78%.

As for `CC[C@H](N)C(=O)N[C@@H]1C(=O)N2[C@@H](CC[C@@H]1CCNC(=O)c1ccccc1)CC[C@H]2C(=O)NC(c1ccccc1)c1ccccc1`, the IC50 in the data set with HL-60 was 50.7 µM; with PC-3 it was over 100 µM; in the data set on MDA-MB-231, 0.93 µM. In addition, in data set [1], the Stability was 65%.

`CC[C@H](NC)C(=O)N[C@@H]1C(=O)N2[C@@H](CC[C@@H]1CO)CC[C@H]2C(=O)NC(c1ccccc1)c1ccccc1`: the IC50 in the data set on HL-60 was 26.1 µM; with PC-3 it was over 100 µM; with MDA-MB-231, […]. Besides, in data set [1], the Stability turned out to be 86%.

As to `CC[C@H](N)C(=O)N[C@@H]1C(=O)N2[C@@H](CC[C@@H]1CCNCc1ccccc1)CC[C@H]2C(=O)NC(c1ccccc1)c1ccccc1`, the IC50 stood at 15.4 µM in the data set with HL-60, 39.2 µM in the data set on PC-3 and 0.4 µM with MDA-MB-231.

As to `CC[C@H](N)C(=O)N[C@@H]1C(=O)N2[C@@H](CC[C@@H]1CN)CC[C@H]2C(=O)NC(c1ccccc1)c1ccccc1`, the figures for the IC50 in the data set on HL-60, in the data set with PC-3 and in the data set on MDA-MB-231 were 69.3 µM, over 100 µM and 6.03 µM, respectively. Moreover, the Stability in data set [1] is reported as 93%.

In the case of `CC[C@H](N)C(=O)N[C@@H]1C(=O)N2[C@@H](CC[C@@H]1CO)CC[C@H]2C(=O)NC(c1ccccc1)c1ccccc1`, the 50% inhibitory concentration (IC50) was 6.5 µM in the data set with HL-60, over 100 µM with PC-3 and 1.03 µM in the data set on MDA-MB-231. Moreover, the Stability in data set [1] stood at 79%.

Turning to `CC[C@H](NC)C(=O)N[C@H]1CCC[C@H]2CC[C@@H](C(=O)NC(c3ccccc3)c3ccccc3)N2C1=O`, the IC50 with HL-60 came out at 20.2 µM; in the data set on PC-3, 56.9 µM; with MDA-MB-231, 0.146 µM. The Stability in data set [1] was found to be 83%.

These data come from ChEMBL document CHEMBL1154119, “Rational design, synthesis and characterization of potent, non-peptidic Smac mimics/XIAP inhibitors as proapoptotic agents for cancer therapy” (Bioorg Med Chem, 2009).
